From ChEMBL document CHEMBL1949508, “The selective cytotoxic activity in breast cancer cells by an anthranilic alcohol-derived acyclic 5-fluorouracil O,N-acetal is mediated by endoplasmic reticulum stress-induced apoptosis” (Eur J Med Chem, 2012)
Calls of active or inactive are those of the source. The calls are words filed in the database; no cut-off is given here.

Columns and labels:
MCF-10A [1] = experiment: Downregulation of CARD9 gene in human MCF10A cells at 37.67 uM after 48 hrs by microarray hybridization relative to control; format: functional, cell-based
MCF-10A [2] = experiment: Upregulation of BBC3 gene in human MCF10A cells at 37.67 uM after 48 hrs by microarray hybridization relative to control; format: functional, cell-based
MCF7 [3] = experiment: Downregulation of CARD9 gene in human MCF7 cells at 1.09 uM after 48 hrs by microarray hybridization relative to control; format: functional
MCF7 [4] = experiment: Upregulation of BBC3 gene in human MCF7 cells at 1.09 uM after 48 hrs by quantitative RT-PCR analysis; format: functional, cell-based
MCF7 [5] = experiment: Upregulation of MTL5 gene in human MCF7 cells at 1.09 uM after 48 hrs by microarray hybridization relative to control; format: functional
MCF7 [6] = experiment: Downregulation of BAG2 gene in human MCF7 cells at 1.09 uM after 48 hrs by microarray hybridization relative to control; format: functional
MCF-10A [7] = experiment: Induction of necrosis in human MCF10A cells assessed as necrotic cells at 37.67 uM after 48 hrs by annexinV-FITC/PI-based flow cytometry (reference value: 0.6 +/- 0.13%); format: cell-based
MCF7 [8] = experiment: Induction of apoptosis in human MCF7 cells assessed as early apoptotic cells at 1.09 uM after 48 hrs by annexinV-FITC/PI-based flow cytometry (reference value: 3.27 +/- 0.67%); format: functional
MCF7 [9] = experiment: Downregulation of […] gene in human MCF7 cells at 1.09 uM after 48 hrs by microarray hybridization relative to control; format: functional
MCF7 [10] = experiment: Induction of apoptosis in human MCF7 cells assessed as late apoptotic cells at 1.09 uM after 48 hrs by annexinV-FITC/PI-based flow cytometry (reference value: 0.11 +/- 0.02%); format: functional
MCF-10A [11] = experiment: Induction of apoptosis in human MCF10A cells assessed as early apoptotic cells at 37.67 uM after 48 hrs by annexinV-FITC/PI-based flow cytometry (reference value: 0.73 +/- 0.23%); format: cell-based
MCF-10A [12] = experiment: Downregulation of E2F1 gene in human MCF10A cells at 37.67 uM after 48 hrs by microarray hybridization relative to control; format: functional, cell-based
MCF7 [13] = experiment: Upregulation of CARD14 gene in human MCF7 cells at 1.09 uM after 48 hrs by microarray hybridization relative to control; format: functional
MCF-10A [14] = experiment: Upregulation of BBC3 protein expression in human MCF10A cells at 37.67 uM after 48 hrs by Western blot analysis relative to control; format: functional
MCF7 [15] = experiment: Downregulation of CD14 gene in human MCF7 cells at 1.09 uM after 48 hrs by microarray hybridization relative to control; format: functional
MCF-10A [16] = experiment: Downregulation of AVEN gene in human MCF10A cells at 37.67 uM after 48 hrs by microarray hybridization relative to control; format: functional, cell-based
MCF7 [17] = experiment: Upregulation of BMF gene in human MCF7 cells at 1.09 uM after 48 hrs by microarray hybridization relative to control; format: functional
MCF-10A [18] = experiment: Upregulation of DNASE1 gene in human MCF10A cells at 37.67 uM after 48 hrs by microarray hybridization relative to control; format: functional, cell-based
MCF-10A [19] = experiment: Upregulation of GADD45B gene in human MCF10A cells at 37.67 uM after 48 hrs by microarray hybridization relative to control; format: functional, cell-based
MCF-10A [20] = experiment: Downregulation of BCL2 gene in human MCF10A cells at 37.67 uM after 48 hrs by microarray hybridization relative to control; format: functional, cell-based
MCF-10A [21] = experiment: Induction of apoptosis in human MCF10A cells assessed as apoptotic cells at 37.67 uM after 48 hrs by annexinV-FITC/PI-based flow cytometry relative to control; format: cell-based
MCF7 [22] = experiment: Downregulation of BCL2 gene in human MCF7 cells at 1.09 uM after 48 hrs by microarray hybridization relative to control; format: functional
MCF7 [23] = experiment: Modulation of Apaf-1 gene expression in human MCF7 cells at 1.09 uM after 48 hrs by quantitative RT-PCR analysis; format: functional, cell-based
MCF7 [24] = experiment: Upregulation of NOXA gene in human MCF7 cells at 1.09 uM after 48 hrs by microarray hybridization relative to control; format: functional
MCF-10A [25] = experiment: Upregulation of BMF gene in human MCF10A cells at 37.67 uM after 48 hrs by microarray hybridization relative to control; format: functional, cell-based
MCF7 [26] = experiment: Downregulation of UNC5C gene in human MCF7 cells at 1.09 uM after 48 hrs by microarray hybridization relative to control; format: functional
MCF7 [27] = experiment: Induction of necrosis in human MCF7 cells assessed as necrotic cells at 1.09 uM after 48 hrs by annexinV-FITC/PI-based flow cytometry (reference value: 0.27 +/- 0.01%); format: functional
MCF7 [28] = experiment: Upregulation of BNIP3 gene in human MCF7 cells at 1.09 uM after 48 hrs by microarray hybridization relative to control; format: functional
MCF7 [29] = experiment: Upregulation of DNASE1 gene in human MCF7 cells at 1.09 uM after 48 hrs by microarray hybridization relative to control; format: functional
MCF7 [30] = experiment: Antiproliferative activity against human MCF7 cells after 3 days by SRB assay; format: functional, cell-based; details: MCF7, 72 h
MCF7 [31] = experiment: Antiproliferative activity against human MCF7 cells assessed as cell viability at 1.09 uM after […] by SRB assay (reference value: 96.35 +/- 1.32%); format: functional; details: read-out: Activity
MCF-10A [32] = experiment: Downregulation of FAIM gene in human MCF10A cells at 37.67 uM after 48 hrs by microarray hybridization relative to control; format: functional, cell-based

Compound: COC(CN(c1ccccc1CO)S(=O)(=O)c1ccccc1N)n1cc(F)c(=O)[nH]c1=O (racemic)
- Activity (MCF-10A [1]): inactive
- Activity (MCF-10A [2]): inactive
- fold change (FC) (MCF7 [3]): -2.11
- Activity (MCF7 [4]): Active
- fold change (FC) (MCF7 [5]): 3.75
- fold change (FC) (MCF7 [6]): -2.32
- Activity (MCF-10A [7]): 49.24%
- Activity (MCF7 [8]): 13.73%
- fold change (FC) (MCF7 [9]): -2.62
- Activity (MCF7 [10]): 77.4%
- Activity (MCF-10A [11]): 2.57%
- Activity (MCF-10A [12]): inactive
- fold change (FC) (MCF7 [13]): 2.34
- fold change (FC) (MCF-10A [14]): 1.13
- fold change (FC) (MCF7 [15]): -2.61
- Activity (MCF-10A [16]): inactive
- fold change (FC) (MCF7 [17]): 3
- Activity (MCF-10A [18]): inactive
- Activity (MCF-10A [19]): inactive
- Activity (MCF-10A [20]): inactive
- Activity (MCF-10A [21]): 19.86%
- fold change (FC) (MCF7 [22]): -2.26
- Activity (MCF7 [23]): inactive
- fold change (FC) (MCF7 [24]): 2.02
- Activity (MCF-10A [25]): inactive
- fold change (FC) (MCF7 [26]): -2.01
- Activity (MCF7 [27]): 2.52%
- fold change (FC) (MCF7 [28]): 2.65
- fold change (FC) (MCF7 [29]): 2.07
- IC50 (MCF7 [30]): 1.09 µM
- viability at 1.09 µM (MCF7 [31]): 6.35%
- Activity (MCF-10A [32]): inactive
